Test results taken from patent US6403652B1, “Method and composition” (Colgate-Palmolive Company, priority 2000, dated 2002).
Values after ≈ are worked out from the molar mass of the structure shown. Like-named read-outs stand apart in the source and are kept apart here.

Legend:
Format in all cases: cell-based
Staphylococcus Aureus = assay: MIC by Broth Dilution Method against Staphylococcus Aureus; conditions: 37° C., visible growth
Protocol: Antimicrobial activity of several compounds was measured by determining the minimum inhibitory concentration (MIC). MIC is defined as the lowest concentration of an antimicrobial agent that will inhibit the growth of a microorganism and is usually expressed as ppm (μg/mL). MIC was determined by the Broth Dilution Method. To determine MIC a series of culture tubes was prepared, each tube containing the growth medium (Broth) with a decreasing concentration of the antimicrobial agent. The tubes were then inoculated with the test organism and incubated at 37° C. After incubation, tubes were visually examined for growth as indicated by turbidity. The lowest concentration that prevented visible growth is the MIC.

[1] = MIC in multiwell plate broth dilution, isolate SA22; conditions: Staphylococcus aureus
Protocol: (§1) 1. The following Staphylococcus Aureus isolates were tested:
(§2) 2. 2-t-butyl-5-(4-t-butylphenyl)-phenol (DTBBP) was dissolved in ethanol to a concentration of 1000 μg/mL. Higher concentrations could not be tested due to the formation of precipitate in the broth when higher concentrations were attempted.
(§3) 3. 100 μl of the 32 μg/ml solution added to column 12 of the multiwell plates, 50 μl M—H broth to each of the other columns. 50 μl removed from 12 to 11 for 1:1 dilution, continued to column 2. 50 μl removed from column 2 and discarded. Column 1 contained no drug. To control for the amount of ethanol added to each well, additional wells were set up as described above without DTBBP but with the same amount of ethanol as the test wells.
(§4) 4. 50 μl bacteria added to each well going from column 1 to column 12. All isolates run in duplicate with and without DTBBP.
(§5) 5. Addition of 50 μl bacteria to 50 μl drug dilutes both 1:1 for a final bacterial density of 5×10^5/ml and drug concentrations of:
(§6) 6. Incubated overnight at 37° C.

[2] = system: Staphylococcus Aureus isolate SA76 (resistant to methicillin, azithromycin, clarithromycin, erythromycin, ciprofloxacin); assay: MIC in multiwell plate broth dilution, isolate SA76
Protocol: as §1, §2, §3, §4, §5, §6

[3] = system: Staphylococcus Aureus isolate SA100 (resistant to methicillin only); assay: MIC in multiwell plate broth dilution, isolate SA100
Protocol: as §1, §2, §3, §4, §5, §6

[4] = system: Staphylococcus Aureus isolate SA6 (susceptible to all drugs); assay: MIC in multiwell plate broth dilution, isolate SA6
Protocol: as §1, §2, §3, §4, §5, §6

[5] = system: Staphylococcus Aureus isolate SA15 (susceptible); assay: MIC in multiwell plate broth dilution, isolate SA15
Protocol: as §1, §2, §3, §4, §5, §6

[6] = system: Staphylococcus Aureus isolate SA124 (susceptible); assay: MIC in multiwell plate broth dilution, isolate SA124
Protocol: as §1, §2, §3, §4, §5, §6

## CC(C)(C)c1cc(C2CCCCC2)ccc1O [2-t-butyl-4-cyclohexylphenol]
Staphylococcus Aureus
  MIC: < 10 µg/mL

## CCCCCCCCc1ccc(O)c(C(C)(C)C)c1 [2-t-butyl-4-n-octylphenol]
Staphylococcus Aureus
  MIC: < 10 µg/mL

## CC(C)(C)c1ccc(C2CCC(C(C)(C)C)CC2)cc1O (stereo not shown) [2-t-butyl-5-(4-t-butylcyclohexyl)-phenol]
Staphylococcus Aureus
  MIC: < 10 µg/mL

## CC(C)(C)c1ccc(-c2ccc(C(C)(C)C)c(O)c2)cc1 [DTBBP, 2-t-butyl-5-(4-t-butylphenyl)-phenol]
Staphylococcus Aureus
  MIC: < 1 µg/mL
[1]; isolate SA22, 24 hr, read-out: DTBBP MIC (24 hr)
  MIC: 2 µg/mL (≈ 7.08 µM)
[1]; isolate SA22, 48 hr, read-out: DTBBP MIC (48 hr)
  MIC: 2 µg/mL (≈ 7.08 µM)
[2]; isolate SA76, 24 hr, read-out: DTBBP MIC (24 hr)
  MIC: 2 µg/mL (≈ 7.08 µM)
[2]; isolate SA76, 48 hr, read-out: DTBBP MIC (48 hr)
  MIC: 4 µg/mL (≈ 14.2 µM)
[3]; isolate SA100, 24 hr, read-out: DTBBP MIC (24 hr)
  MIC: 4 µg/mL (≈ 14.2 µM)
[3]; isolate SA100, 48 hr, read-out: DTBBP MIC (48 hr)
  MIC: 4 µg/mL (≈ 14.2 µM)
[4]; isolate SA6, 24 hr, read-out: DTBBP MIC (24 hr)
  MIC: 2 µg/mL (≈ 7.08 µM)
[4]; isolate SA6, 48 hr, read-out: DTBBP MIC (48 hr)
  MIC: 4 µg/mL (≈ 14.2 µM)
[5]; isolate SA15, 24 hr, read-out: DTBBP MIC (24 hr)
  MIC: 2 µg/mL (≈ 7.08 µM)
[5]; isolate SA15, 48 hr, read-out: DTBBP MIC (48 hr)
  MIC: 4 µg/mL (≈ 14.2 µM)
[6]; isolate SA124, 24 hr, read-out: DTBBP MIC (24 hr)
  MIC: 2 µg/mL (≈ 7.08 µM)
[6]; isolate SA124, 48 hr, read-out: DTBBP MIC (48 hr)
  MIC: 4 µg/mL (≈ 14.2 µM)
